pIC50: −log10 of the molar value.

We go through 7 compounds from ChEMBL document CHEMBL1153961, “Antiproliferative and antimalarial anthraquinones of Scutia myrtina from the Madagascar forest” (Bioorg Med Chem, 2009).

One data set has as its system A2780. Description: Cytotoxicity against human A2780 cells. Type of data set: cell-based.
A short description of data set [1]: Selectivity index, ratio of IC50 for human A2780 cells to IC50 for Plasmodium falciparum Dd2. Type of data set: toxicity, cell-based. The note with it: A2780 cells versus Plasmodium falciparum Dd2, read-out: Ratio IC50.
Data set [2] concerns Plasmodium falciparum. As to the kind of experiment: Antiplasmodial activity against chloroquine-resistant Plasmodium falciparum Dd2 by SYBR green assay. Format: functional, organism-based.
For data set [3], the system named is Plasmodium falciparum. As to the kind of experiment: Antiplasmodial activity against chloroquine-resistant Plasmodium falciparum FCM29 by SYBR green assay. Type of data set: functional, organism-based.
Data set [4] in a line: Selectivity index, ratio of IC50 for human A2780 cells to IC50 for Plasmodium falciparum FCM29. Type of data set: toxicity, cell-based. The note with it: A2780 cells versus Plasmodium falciparum FCM29, read-out: Ratio IC50.

`COC(=O)c1c(O)cc2c(c1C)C(=O)c1c(O)cccc1C2=O` [ALOESAPONARIN I]: the pIC50 with A2780 was under 4.49; with Plasmodium falciparum [2], 5.25; in the data set with Plasmodium falciparum [3] it was 4.11. In data set [1], the selectivity ratio was over 5.7.
As to `CC(=O)O[C@H]1C(=O)[C@@]2(C)[C@H]([C@H](OC(=O)c3ccccc3)[C@]3(O)C[C@H](OC(=O)[C@H](O)[C@@H](NC(=O)c4ccccc4)c4ccccc4)C(C)=C1C3(C)C)[C@]1(OC(C)=O)CO[C@@H]1C[C@@H]2O` [PACLITAXEL], in the data set with A2780, the pIC50 is 7.85.
Consider `C=C[C@H]1CN2CC[C@H]1C[C@H]2[C@H](O)c1ccnc2ccc(OC)cc12` [QUININE], for which the pIC50 with Plasmodium falciparum [3] was 6.66.
As to `CCC(C)C(=O)OC1(c2ccc3c(c2O)C(=O)c2c(cc(O)c(C(=O)OC)c2C)C3=O)c2cccc(O)c2C(=O)c2c1cc(O)c(C(=O)OC)c2C` (stereo unspecified) [SCUTIANTHRAQUINONE A], the figures for the selectivity ratio in data set [4] and in data set [1] were 6.3 and 6.1, respectively. For the same compound, the pIC50 with A2780 is 5.12; in the data set with Plasmodium falciparum [2] it was 5.91; with Plasmodium falciparum [3], 5.92.
For `COC(=O)c1c(O)cc2c(c1C)C(=O)c1c(ccc(C3(OC(=O)C(C)C)c4cccc(O)c4C(=O)c4c3cc(O)c(C(=O)OC)c4C)c1O)C2=O` (stereo unspecified) [SCUTIANTHRAQUINONE B], in that order: 1.1, 5.1, 5.24, 5.94 and 5.27.
As to `COC(=O)c1c(O)cc2c(c1C)C(=O)c1c(ccc(C3(O)c4cccc(O)c4C(=O)c4c3cc(O)c(C(=O)OC)c4C)c1O)C2=O` (stereo unspecified) [SCUTIANTHRAQUINONE C], the selectivity ratio in data set [4] was over 1; in data set [1] it was over 5. The values for the pIC50 in the data set on A2780, in the data set on Plasmodium falciparum [2] and in the data set with Plasmodium falciparum [3] were under 4.80, 5.50 and 4.81, respectively.
For `CCC(C)C(=O)OC1(c2ccc3c(c2O)C(=O)c2c(cc(O)c(C(=O)OC)c2C)C3(OC(=O)C(C)CC)c2ccc3c(c2O)C(=O)c2c(cc(O)c(C(=O)OC)c2C)C3=O)c2cccc(O)c2C(=O)c2c1cc(O)c(C(=O)OC)c2C` (stereo unspecified) [SCUTIANTHRAQUINONE D], in that order: 0.8, 1.2, 5.37, 5.43 and 5.25.
